“Also recorded” adds a separate entry of the source.
Columns and labels:
[1] = Toxicity of copper complexes of P(AMD-CBA) (procedure of example 14); assay type: cell-based
Description: 20,000 cells were seeded per well in 96-well plates 24 hours ahead. The culturing medium was first removed and then replaced with 150 μL of medium containing increasing concentration of the polycations. After 24 hours, the incubation medium was removed and a mixture of 100 μL of fresh serum-free medium and 20 μL of MTS reagent solution was added to each well. The cells were incubated for at 37° C. in CO2 incubator for 2 hours. The absorbance at wavelength 505 nm was then measured to determine cell viability. IC50 values were calculated by Prism Graphpad Software.
Toxicity of polycations was also evaluated by MTS assay in Hep G2 cells and CXCR4+U2OS cells. […] Hep G2 cells were maintained in MEM supplemented with 10% FBS. Human epithelial osteosarcoma U2OS cells stably expressing human CXCR4 receptor fused to the N-terminus of enhanced green fluorescent protein were purchased form Fisher Scientific. The cells were cultured in DMEM supplemented with 2 mM L-Glutamine, 10% FBS, 1% Pen-Strep and 0.5 mg/ml G418. The cells were plated into 96-well microtiter plates at a density of 20,000 cells/well. […] After 2 h incubation, the absorbance was measured spectrophotometrically in Synergy 2 Microplate Reader (BioTek, VT) at a wavelength of 490 nm. The relative cell viability (%) was calculated as [A]sample/[A]untreated×100%.

CXCR4 [2] = biological target: T1, CXCR4 (Homo sapiens, UniProt P61073); assay: CXCL12-induced intracellular calcium flux (Fluo-3); assay type: cell-based; settings: Fluo-3 calcium indicator, CXCL12 stimulation
From the text: Binding of chemokine CXCL12 to its receptor CXCR4 triggers an intracellular signal transduction cascade comprising a transient increase in cytosolic free calcium.
Target sequence in this assay (P61073 whole entry, species assumed): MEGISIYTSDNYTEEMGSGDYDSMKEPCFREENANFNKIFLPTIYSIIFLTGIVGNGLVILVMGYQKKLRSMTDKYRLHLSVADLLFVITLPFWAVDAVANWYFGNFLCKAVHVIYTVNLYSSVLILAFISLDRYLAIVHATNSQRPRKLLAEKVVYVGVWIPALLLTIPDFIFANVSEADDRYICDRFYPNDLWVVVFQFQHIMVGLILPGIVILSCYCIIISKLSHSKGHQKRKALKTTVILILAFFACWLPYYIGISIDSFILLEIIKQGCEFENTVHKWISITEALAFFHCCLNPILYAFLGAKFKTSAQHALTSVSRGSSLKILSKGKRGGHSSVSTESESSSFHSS

[3] = complexes with nucleic acids
From the text: Ability to condense DNA is a prerequisite for successful polyplex gene delivery. FIG. 1 schematically represents this process.

pDNA = assay: DNA condensation by ethidium bromide exclusion assay; assay type: physicochemical; settings: pH 7.4
Description: (§1) The ability of P(AMD-CBA) to condense pDNA was determined by ethidium bromide exclusion (EtBr) assay by measuring the changes in EtBr/pDNA fluorescence. pDNA solution at a concentration of 20 μg/mL was mixed with EtBr (1 μg/mL) and fluorescence was measured and set to 100% using an excitation wavelength of 540 nm and an emission wavelength of 590 nm. Fluorescence readings were taken following a stepwise addition of the polycation solution, and the condensation curve for each polycation was constructed.
as §1, with “P(Cyc-CBA)” for “P(AMD-CBA)”
At pH 7.4, a w/w ratio above 2 was required for RPA to fully condense the DNA, which was higher than that required in case of RHB (w/w 1) and PEI (w/w 0.5). […] The redox stability of RPA/DNA polyplexes was tested by agarose gel electrophoresis after GSH treatment.

CXCR4+U2OS cells [4] = assay: Matrigel cell invasion assay towards CXCL12; assay type: cell-based, Human; settings: CXCL12-mediated invasion, 16 h
Description: The upper sides of the transwell inserts were coated with 40 μl Matrigel diluted in serum-free medium (v/v 1:3) per insert. The 24-well plates with coated inserts were then placed in 37° C. incubator for 2 h. CXCR4+U2OS cells were trypsinized and resuspended in different concentrations of drugs in serum-free medium for 30 min before adding to the inserts at a final concentration of 10,000 cells in 300 μl medium per insert. 20 nM CXCL12 in serum-free medium as the chemo-attractant was then added to corresponding wells in the companion plate. After 16 h, the non-invaded cells on the upper surface of the inserts were removed with a cotton swab. The invaded cells were then fixed and stained by dipping the inserts into Diff-Quick solution. The images were taken by EVOS ×1 microscope. Five 20× imaging areas were randomly selected for each insert and each sample was conducted in triplicate. Statistical significance of the observed differences in cell invasion was analyzed using non-parametric ANOVA with Dunn's multiple comparison test using GraphPad InStat (v. 3.10). P<0.05 was considered significant.
To further confirm the CXCR4 antagonism of RPA and RPA/DNA polyplexes, the anti-metastatic ability was evaluated by a Matrigel cell invasion assay. […] The DNA dose used in the experiment with the polyplexes (1 μg/mL DNA) was in the range of typical doses used in transfection experiments.

CXCR4 [5] = biological target: T1, CXCR4; assay: Phorbol myristate acetate-stimulated CXCR4 internalization; assay type: cell-based; settings: 100 ng/mL phorbol myristate acetate
From the text: It has been reported that CXCL12 and phorbol esters trigger CXCR4 internalization through entirely different uptake pathway (Signoret, Oldridge et al. 1997).
Target sequence in this assay (P61073 whole entry): as the sequence (P61073 whole entry, species assumed) above

CXCR4+U2OS cells [6] = assay: Luciferase transfection in CXCR4+U2OS cells; assay type: cell-based, Human; settings: 100 ng/mL, serum-free medium, 4 h

Compound: [Cl][Cu][Cl] [CuCl2]
- Toxicity with increasing copper content [1]: No toxicity

Compound: c1cc(CN2CCCNCCNCCCNCC2)ccc1CN1CCCNCCNCCCNCC1 [AMD3100, 1,1′-[1,4-Phenylenebis(methylene)]bis[1,4,8,11-tetraazacyclotetradecane]]
- Effect on CXCL12-induced calcium signaling (CXCR4-mediated) (CXCR4 [2]): strong antagonistic effect; also recorded: CXCL12 antagonists
- Transfection level [3]: only background levels of transfection
- Decrease in EtBr fluorescence (pDNA): about 30%
- Blocked invasion (% of cells) (CXCR4+U2OS cells [4]): 75%
- Inhibition of phorbol-stimulated CXCR4 internalization (CXCR4 [5]): do not inhibit

Compound: CCCCCCCCCCCCCC(=O)O[C@@H]1[C@@H](C)[C@@]2(O)[C@@H](C=C(CO)C[C@]3(O)C(=O)C(C)=C[C@@H]23)[C@@H]2C(C)(C)[C@]12OC(C)=O [PMA, phorbol 12-myristate 13-acetate]
- Cytotoxicity under the transfection conditions (CXCR4+U2OS cells [6]): No cytotoxicity

— patent publication US9545453B2, “CXCR4 inhibiting carriers for nucleic acid delivery” (Wayne State University, priority 2011, dated 2017)
